In ChEMBL document CHEMBL1201862, “PubChem BioAssay data set” (2004):
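Five concentrations, 48 hours, 96-well plates. GI50 marks 50% less growth.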 The source made the active and inactive calls. Rule as the data show it: active = GI50 up to about 1.1 µM and inactive = higher.

Assays:
Assay in all cases: inhibition of tumour cell growth, NCI panel, 48 h
SK-MEL-28 = test system: SK-MEL-28
HL-60 = test system: HL-60
NCI-H23 = test system: NCI-H23
DU-145 = test system: DU-145
HCC 2998 = test system: HCC 2998
SK-OV-3 = test system: SK-OV-3
U-251 = test system: U-251
Hs-578T = test system: Hs-578T
M14 = test system: M14
K562 = test system: K562
HT-29 = test system: HT-29
SN12C = test system: SN12C
ACHN = test system: ACHN
HCT-15 = test system: HCT-15
T47D = test system: T47D
NCI/ADR-RES = test system: NCI/ADR-RES
MDA-MB-435 = test system: MDA-MB-435
SF-295 = test system: SF-295
786-0 = test system: 786-0
UACC-62 = test system: UACC-62
TK-10 = test system: TK-10
SF-539 = test system: SF-539
SR = test system: SR
SK-MEL-2 = test system: SK-MEL-2
A549 = test system: A549
NCI-H460 = test system: NCI-H460
CCRF-CEM = test system: CCRF-CEM
SNB-75 = test system: SNB-75
CAKI-1 = test system: CAKI-1
IGROV-1 = test system: IGROV-1
OVCAR-4 = test system: OVCAR-4
COLO 205 = test system: COLO 205
HOP-62 = test system: HOP-62
MCF7 = test system: MCF7
HCT-116 = test system: HCT-116
NCI-H522 = test system: NCI-H522
UO-31 = test system: UO-31
KM12 = test system: KM12
OVCAR-3 = test system: OVCAR-3
SW-620 = test system: SW-620
SNB-19 = test system: SNB-19
HOP-92 = test system: HOP-92
PC-3 = test system: PC-3
NCI-H226 = test system: NCI-H226
SF-268 = test system: SF-268
EKVX = test system: EKVX
SK-MEL-5 = test system: SK-MEL-5
OVCAR-5 = test system: OVCAR-5
Malme-3M = test system: Malme-3M
MDA-N = test system: MDA-N
MDA-MB-231 = test system: MDA-MB-231
LOX IMVI = test system: LOX IMVI
MOLT-4 = test system: MOLT-4
RPMI-8226 = test system: RPMI-8226
UACC-257 = test system: UACC-257
OVCAR-8 = test system: OVCAR-8
A498 = test system: A498
RXF 393 = test system: RXF 393

## CC1(C)N=C(N)N=C(N)N1c1ccc(CCCCCCc2ccc(S(=O)(=O)F)cc2)cc1
SK-MEL-28
  GI50: 3.88 µM (inactive)
HL-60
  GI50: 132 nM (active)
NCI-H23
  GI50: 61.7 nM (active)
DU-145
  GI50: 421 nM (active)
HCC 2998
  GI50: 2.23 µM (inactive)
SK-OV-3
  GI50: 8.53 µM (inactive)
U-251
  GI50: < 35.2 nM (active)
Hs-578T
  GI50: 2.18 µM (inactive)
M14
  GI50: 1.24 µM (inactive)
K562
  GI50: < 10.5 nM (active)
HT-29
  GI50: < 46.8 nM (active)
SN12C
  GI50: 28 nM (active)
ACHN
  GI50: 274 nM (active)
HCT-15
  GI50: 857 nM
T47D
  GI50: 8 µM (inactive)
NCI/ADR-RES
  GI50: 22.9 µM (inactive)
MDA-MB-435
  GI50: 55.7 nM (active)
SF-295
  GI50: 114 nM (active)
786-0
  GI50: < 10 nM (active)
UACC-62
  GI50: < 0.01 µM (active)
TK-10
  GI50: 1.02 µM (active)
SF-539
  GI50: < 18.9 nM (active)
SR
  GI50: < 10 nM (active)
SK-MEL-2
  GI50: 3.72 µM (inactive)
A549
  GI50: < 37.6 nM (active)
NCI-H460
  GI50: < 22.9 nM (active)
CCRF-CEM
  GI50: < 10 nM (active)
SNB-75
  GI50: 3.36 µM (inactive)
CAKI-1
  GI50: 12.3 µM (inactive)
IGROV-1
  GI50: < 39.5 nM (active)
OVCAR-4
  GI50: 31.8 µM (inactive)
COLO 205
  GI50: 0.144 µM (active)
HOP-62
  GI50: 1.19 µM (inactive)
MCF7
  GI50: 82.8 nM (active)
HCT-116
  GI50: 17 nM (active)
NCI-H522
  GI50: 1.55 µM (inactive)
UO-31
  GI50: 14.1 µM (inactive)
KM12
  GI50: 0.276 µM (active)
OVCAR-3
  GI50: 0.247 µM (active)
SW-620
  GI50: < 21.1 nM (active)

## CC(=O)N(CN1C(=O)CCC1C(=O)O)c1cccc(O)c1 (configuration not stated)
SK-MEL-28
  GI50: > 100 µM (inactive)
SNB-19
  GI50: > 100 µM (inactive)
HOP-92
  GI50: > 100 µM (inactive)
PC-3
  GI50: > 100 µM (inactive)
HL-60
  GI50: > 100000 nM (inactive)
NCI-H226
  GI50: > 100 µM (inactive)
NCI-H23
  GI50: > 100000 nM (inactive)
DU-145
  GI50: > 100000 nM (inactive)
SF-268
  GI50: > 100 µM (inactive)
HCC 2998
  GI50: > 100 µM (inactive)
SK-OV-3
  GI50: > 100 µM (inactive)
U-251
  GI50: > 100000 nM (inactive)
Hs-578T
  GI50: > 100 µM (inactive)
M14
  GI50: > 100 µM (inactive)
EKVX
  GI50: > 100 µM (inactive)
K562
  GI50: > 100000 nM (inactive)
HT-29
  GI50: > 100000 nM (inactive)
SK-MEL-5
  GI50: > 100 µM (inactive)
SN12C
  GI50: > 100000 nM (inactive)
ACHN
  GI50: > 100000 nM (inactive)
OVCAR-5
  GI50: > 100 µM (inactive)
HCT-15
  GI50: > 100000 nM
Malme-3M
  GI50: > 100 µM (inactive)
T47D
  GI50: > 100 µM (inactive)
NCI/ADR-RES
  GI50: > 100 µM (inactive)
MDA-MB-435
  GI50: > 100000 nM (inactive)
SF-295
  GI50: > 100000 nM (inactive)
MDA-N
  GI50: > 100 µM (inactive)
786-0
  GI50: > 100000 nM (inactive)
UACC-62
  GI50: > 100 µM (inactive)
MDA-MB-231
  GI50: > 100 µM (inactive)
TK-10
  GI50: > 100 µM (inactive)
SF-539
  GI50: > 100000 nM (inactive)
SK-MEL-2
  GI50: > 100 µM (inactive)
A549
  GI50: > 100000 nM (inactive)
NCI-H460
  GI50: > 100000 nM (inactive)
LOX IMVI
  GI50: > 100 µM (inactive)
CCRF-CEM
  GI50: > 100000 nM (inactive)
MOLT-4
  GI50: > 100 µM (inactive)
SNB-75
  GI50: > 100 µM (inactive)
CAKI-1
  GI50: > 100 µM (inactive)
IGROV-1
  GI50: > 100000 nM (inactive)
RPMI-8226
  GI50: > 100 µM (inactive)
UACC-257
  GI50: > 100 µM (inactive)
OVCAR-4
  GI50: > 100 µM (inactive)
COLO 205
  GI50: > 100 µM (inactive)
HOP-62
  GI50: > 100 µM (inactive)
MCF7
  GI50: > 100000 nM (inactive)
OVCAR-8
  GI50: > 100 µM (inactive)
A498
  GI50: > 100 µM (inactive)
HCT-116
  GI50: > 100000 nM (inactive)
NCI-H522
  GI50: > 100 µM (inactive)
UO-31
  GI50: > 100 µM (inactive)
KM12
  GI50: > 100 µM (inactive)
OVCAR-3
  GI50: > 100 µM (inactive)
SW-620
  GI50: > 100000 nM (inactive)

## CCN(CCCl)c1cc(CN(C)C)cc(NC(=O)c2ccc(C(=O)Nc3ccccc3)cc2)c1
SK-MEL-28
  GI50: 1.19 µM (inactive)
SNB-19
  GI50: 0.676 µM (active)
HOP-92
  GI50: 0.414 µM (active)
PC-3
  GI50: 0.34 µM (active)
HL-60
  GI50: 193 nM (active)
NCI-H226
  GI50: 1.53 µM (inactive)
NCI-H23
  GI50: 270 nM (active)
DU-145
  GI50: 415 nM (active)
SF-268
  GI50: 0.337 µM (active)
HCC 2998
  GI50: 0.789 µM (active)
SK-OV-3
  GI50: 0.971 µM (active)
U-251
  GI50: 250 nM (active)
Hs-578T
  GI50: 0.218 µM (active)
M14
  GI50: 0.883 µM (active)
K562
  GI50: 406 nM (active)
HT-29
  GI50: 174 nM (active)
SK-MEL-5
  GI50: 0.194 µM (active)
SN12C
  GI50: 767 nM (active)
ACHN
  GI50: 218 nM (active)
OVCAR-5
  GI50: 0.836 µM (active)
HCT-15
  GI50: 1700 nM
Malme-3M
  GI50: 0.191 µM (active)
T47D
  GI50: 1.24 µM (inactive)
NCI/ADR-RES
  GI50: 2.63 µM (inactive)
MDA-MB-435
  GI50: 239 nM (active)
SF-295
  GI50: 348 nM (active)
MDA-N
  GI50: 0.298 µM (active)
786-0
  GI50: 210 nM (active)
UACC-62
  GI50: 1.29 µM (inactive)
MDA-MB-231
  GI50: 1.3 µM (inactive)
TK-10
  GI50: 3.02 µM (inactive)
SF-539
  GI50: 647 nM (active)
SR
  GI50: 263 nM (active)
SK-MEL-2
  GI50: 0.27 µM (active)
A549
  GI50: 420 nM (active)
NCI-H460
  GI50: 275 nM (active)
LOX IMVI
  GI50: 0.204 µM (active)
CCRF-CEM
  GI50: 270 nM (active)
MOLT-4
  GI50: 0.284 µM (active)
SNB-75
  GI50: 1.08 µM (active)
RXF 393
  GI50: 152 nM (active)
CAKI-1
  GI50: 0.65 µM (active)
IGROV-1
  GI50: 177 nM (active)
RPMI-8226
  GI50: 0.307 µM (active)
UACC-257
  GI50: 1.3 µM (inactive)
OVCAR-4
  GI50: 0.288 µM (active)
COLO 205
  GI50: 1.04 µM (active)
HOP-62
  GI50: 0.314 µM (active)
MCF7
  GI50: 232 nM (active)
OVCAR-8
  GI50: 0.417 µM (active)
A498
  GI50: 0.316 µM (active)
HCT-116
  GI50: 424 nM (active)
NCI-H522
  GI50: 0.109 µM (active)
UO-31
  GI50: 1.91 µM (inactive)
KM12
  GI50: 1.06 µM (active)
SW-620
  GI50: 150 nM (active)
